Experimental data from patent US9718819B2 (Merck Sharp & Dohme Corp., priority 2012, dated 2017).

Biological target: HIV-1 RT wild-type enzyme (Human immunodeficiency virus type 1 group M subtype B (isolate HXB2) (HIV-1), UniProt P04585)
Experiment: HIV-1 reverse transcriptase inhibitory activity (RT polymerase assay)
Assay type: biochemical
Conditions: HIV-1 RT wild-type enzyme 83 pM; RNA-dependent DNA polymerase activity; read-out: IC50
Procedure, shortened: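 Enzyme and compound were preincubated 30 min at room temperature, then RNA/DNA hybrid (16.6 nM final; HCV-derived RNA, biotinylated primer) plus 2 μM dNTPs and 66.6 nM Ru-dUTP added, 90 min at 37 °C. Avidin capture and ECL counting; percent inhibition relative to DMSO (0%) and 1 μM efavirenz (100%), four-parameter IC50 fit.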

SMILES | IC50 [nM]
N#Cc1cc(Cl)cc(Oc2c(C(F)(F)F)ncn(Cc3cc(-c4cccnc4)c(=O)[nH]n3)c2=O)c1 [Example 73, 3-chloro-5-((6-oxo-1-((6-oxo-5-(pyridin-3-yl)-1,6-dihydropyridazin-3-yl)methyl)-4-(trifluoromethyl)-1,6-dihydropyrimidin-5-yl)oxy)benzonitrile] | 11
COc1ccc(-c2cc(Cn3cnc(C(F)(F)F)c(Oc4cc(Cl)cc(C#N)c4)c3=O)n[nH]c2=O)cn1 [Example 74] | 17
N#Cc1ccc(-c2cc(Cn3cnc(C(F)(F)F)c(Oc4cc(Cl)cc(C#N)c4)c3=O)n[nH]c2=O)cc1 [Example 75, 3-chloro-5-((1-((5-(4-cyanophenyl)-6-oxo-1,6-dihydropyridazin-3-yl)methyl)-6-oxo-4-(trifluoromethyl)-1,6-dihydropyrimidin-5-yl)oxy)benzonitrile] | 20
Cn1nccc1-c1cc(Cn2cnc(C(F)(F)F)c(Oc3cc(Cl)cc(C#N)c3)c2=O)n[nH]c1=O [Example 76, 3-chloro-5-((1-((5-(1-methyl-1H-pyrazo1-5-yl)-6-oxo-1,6-dihydropyridazin-3-yl)methyl)-6-oxo-4-(trifluoromethyl)-1,6-dihydropyrimidin-5-yl)oxy)benzonitrile] | 99
N#Cc1cc(Cl)cc(Oc2c(C(F)(F)F)ncn(Cc3cc(-c4ccc(F)nc4)c(=O)[nH]n3)c2=O)c1 [Example 78, 3-chloro-5-((1-((5-(6-fluoropyridin-3-yl)-6-oxo-1,6-dihydropyridazin-3-yl)methyl)-6-oxo-4-(trifluoromethyl)-1,6-dihydropyrimidin-5-yl)oxy)benzonitrile] | 6
N#Cc1cc(Cl)cc(Oc2c(C(F)(F)F)ncn(Cc3cc(-c4ccncc4)c(=O)[nH]n3)c2=O)c1 [Example 81, 3-chloro-5-((6-oxo-1-((6-oxo-5-(pyridin-4-yl)-1,6-dihydropyridazin-3-yl)methyl)-4-(trifluoromethyl)-1,6-dihydropyrimidin-5-yl)oxy)benzonitrile] | 9
N#Cc1cc(Cl)cc(Oc2c(C(F)(F)F)ncn(Cc3cc(-c4cncc(F)c4)c(=O)[nH]n3)c2=O)c1 [Example 82, 3-chloro-5-((1-((5-(5-fluoropyridin-3-yl)-6-oxo-1,6-dihydropyridazin-3-yl)methyl)-6-oxo-4-(trifluoromethyl)-1,6-dihydropyrimidin-5-yl)oxy)benzonitrile] | 7
Cc1ccc(-c2cc(Cn3cnc(C(F)(F)F)c(Oc4cc(Cl)cc(C#N)c4)c3=O)n[nH]c2=O)cn1 [Example 83, 3-chloro-5-((1-((5-(6-methylpyridin-3-yl)-6-oxo-1,6-dihydropyridazin-3-yl)methyl)-6-oxo-4-(trifluoromethyl)-1,6-dihydropyrimidin-5-yl)oxy)benzonitrile] | 14
N#Cc1cc(Cl)cc(Oc2c(C(F)(F)F)ncn(Cc3cc(-c4cncc(C#N)c4)c(=O)[nH]n3)c2=O)c1 [Example 84, 5-(6-((5-(3-chloro-5-cyanophenoxy)-6-oxo-4-(trifluoromethyl)pyrimidin-1(6H)-yl)methyl)-3-oxo-2,3-dihydropyridazin-4-yl)nicotinonitrile] | 27
COc1cncc(-c2cc(Cn3cnc(C(F)(F)F)c(Oc4cc(Cl)cc(C#N)c4)c3=O)n[nH]c2=O)c1 [Example 85, 3-chloro-5-((1-((5-(5-methoxypyridin-3-yl)-6-oxo-1,6-dihydropyridazin-3-yl)methyl)-6-oxo-4-(trifluoromethyl)-1,6-dihydropyrimidin-5-yl)oxy)benzonitrile] | 14
N#Cc1cc(Cl)cc(Oc2c(C(F)(F)F)ncn(Cc3cc(-c4ccc(Cl)nc4)c(=O)[nH]n3)c2=O)c1 [Example 86, 3-chloro-5-((1-((5-(6-chloropyridin-3-yl)-6-oxo-1,6-dihydropyridazin-3-yl)methyl)-6-oxo-4-(trifluoromethyl)-1,6-dihydropyrimidin-5-yl)oxy)benzonitrile] | 6
N#Cc1cc(Cl)cc(Oc2c(C(F)(F)F)ncn(Cc3cc(-c4cccnc4F)c(=O)[nH]n3)c2=O)c1 [Example 87, 3-chloro-5-((1-((5-(2-fluoropyridin-3-yl)-6-oxo-1,6-dihydropyridazin-3-yl)methyl)-6-oxo-4-(trifluoromethyl)-1,6-dihydropyrimidin-5-yl)oxy)benzonitrile] | 18
N#Cc1cc(Cl)cc(Oc2c(C(F)(F)F)ncn(Cc3cc(-c4cnc5ccccc5c4)c(=O)[nH]n3)c2=O)c1 [Example 88, 3-chloro-5-((6-oxo-1-((6-oxo-5-(quinolin-3-yl)-1,6-dihydropyridazin-3-yl)methyl)-4-(trifluoromethyl)-1,6-dihydropyrimidin-5-yl)oxy)benzonitrile] | 17
N#Cc1cc(Cl)cc(Oc2c(C(F)(F)F)ncn(Cc3cc(-c4ccc(C(N)C(F)(F)F)cc4)c(=O)[nH]n3)c2=O)c1 (stereo not drawn) [Example 89, 3-((1-((5-(4-(1-amino-2,2,2-trifluoroethyl)phenyl)-6-oxo-1,6-dihydropyridazin-3-yl)methyl)-6-oxo-4-(trifluoromethyl)-1,6-dihydropyrimidin-5-yl)oxy)-5-chlorobenzonitrile] | 18
N#Cc1cc(Cl)cc(Oc2c(C(F)(F)F)ncn(Cc3cc(Br)c(=O)[nH]n3)c2=O)c1 [Example 90, 3-((1-((5-bromo-6-oxo-1,6-dihydropyridazin-3-yl)methyl)-6-oxo-4-(trifluoromethyl)-1,6-dihydropyrimidin-5-yl)oxy)-5-chlorobenzonitrile] | 6
N#Cc1cc(Cl)cc(Oc2c(C(F)(F)F)ncn(Cc3cc(Cl)c(=O)[nH]n3)c2=O)c1 [Example 91, 3-chloro-5-((1-((5-chloro-6-oxo-1,6-dihydropyridazin-3-yl)methyl)-6-oxo-4-(trifluoromethyl)-1,6-dihydropyrimidin-5-yl)oxy)benzonitrile] | 6
CN(C)c1cc(Cn2cnc(C(F)(F)F)c(Oc3cc(Cl)cc(C#N)c3)c2=O)n[nH]c1=O [Example 92, 3-chloro-5-((1-((5-(dimethylamino)-6-oxo-1,6-dihydropyridazin-3-yl)methyl)-6-oxo-4-(trifluoromethyl)-1,6-dihydropyrimidin-5-yl)oxy)benzonitrile] | 6
N#Cc1cc(Cl)cc(Oc2c(C(F)(F)F)ncn(Cc3cc(-n4cccn4)c(=O)[nH]n3)c2=O)c1 [Example 93, 3-chloro-5-((6-oxo-1-((6-oxo-5-(1H-pyrazol-1-yl)-1,6-dihydropyridazin-3-yl)methyl)-4-(trifluoromethyl)-1,6-dihydropyrimidin-5-yl)oxy)benzonitrile] | 11
N#Cc1cc(Cl)cc(Oc2c(C(F)(F)F)ncn(Cc3cc(-n4ccnn4)c(=O)[nH]n3)c2=O)c1 [Example 94, 3-chloro-5-((6-oxo-1-((6-oxo-5-(1H-1,2,3-triazol-1-yl)-1,6-dihydropyridazin-3-yl)methyl)-4-(trifluoromethyl)-1,6-dihydropyrimidin-5-yl)oxy)benzonitrile] | 48
N#Cc1cc(Cl)cc(Oc2c(C(F)(F)F)ncn(Cc3cc(C#N)c(=O)[nH]n3)c2=O)c1 [Example 95, 6-((5-(3-chloro-5-cyanophenoxy)-6-oxo-4-(trifluoromethyl)pyrimidin-1(6H)-yl)methyl)-3-oxo-2,3-dihydropyridazine-4-carbonitrile] | 8
CS(=O)(=O)c1cc(Cn2cnc(C(F)(F)F)c(Oc3cc(Cl)cc(C#N)c3)c2=O)n[nH]c1=O [Example 96, 3-chloro-5-((1-((5-(methylsulfonyl)-6-oxo-1,6-dihydropyridazin-3-yl)methyl)-6-oxo-4-(trifluoromethyl)-1,6-dihydropyrimidin-5-yl)oxy)benzonitrile] | 336
CCS(=O)(=O)c1cc(Cn2cnc(C(F)(F)F)c(Oc3cc(Cl)cc(C#N)c3)c2=O)n[nH]c1=O [Example 97, 3-chloro-5-((1-((5-(ethylsulfonyl)-6-oxo-1,6-dihydropyridazin-3-yl)methyl)-6-oxo-4-(trifluoromethyl)-1,6-dihydropyrimidin-5-yl)oxy)benzonitrile] | 247
N#Cc1cc(Cl)cc(Oc2c(C(F)(F)F)ncn(Cc3cc(-c4ccc(F)cn4)c(=O)[nH]n3)c2=O)c1 [Example 98, 3-chloro-5-((1-((5-(5-fluoropyridin-2-yl)-6-oxo-1,6-dihydropyridazin-3-yl)methyl)-6-oxo-4-(trifluoromethyl)-1,6-dihydropyrimidin-5-yl)oxy)benzonitrile] | 9
N#Cc1cc(Cl)cc(Oc2c(C(F)(F)F)ncn(Cc3cc(-c4ccc(Cl)cn4)c(=O)[nH]n3)c2=O)c1 [Example 99, 3-chloro-5-((1-((5-(5-chloropyridin-2-yl)-6-oxo-1,6-dihydropyridazin-3-yl)methyl)-6-oxo-4-(trifluoromethyl)-1,6-dihydropyrimidin-5-yl)oxy)benzonitrile] | 7
COC(=O)c1cc(Cn2cnc(C(F)(F)F)c(Oc3cc(Cl)cc(C#N)c3)c2=O)n[nH]c1=O [Example 100, methyl 6-((5-(3-chloro-5-cyanophenoxy)-6-oxo-4-(trifluoromethyl)pyrimidin-1(6H)-yl)methyl)-3-oxo-2,3-dihydropyridazine-4-carboxylate] | 23
N#Cc1cc(Cl)cc(Oc2c(C(F)(F)F)ncn(Cc3cc(C(N)=O)c(=O)[nH]n3)c2=O)c1 [Example 101, 6-((5-(3-chloro-5-cyanophenoxy)-6-oxo-4-(trifluoromethyl)pyrimidin-1(6H)-yl)methyl)-3-oxo-2,3-dihydropyridazine-4-carboxamide] | 153
N#Cc1cc(Cl)cc(Oc2c(C(F)(F)F)ncn(Cc3cc(C(F)F)c(=O)[nH]n3)c2=O)c1 [Example 102, 3-chloro-5-((1-((5-(difluoromethyl)-6-oxo-1,6-dihydropyridazin-3-yl)methyl)-6-oxo-4-(trifluoromethyl)-1,6-dihydropyrimidin-5-yl)oxy)benzonitrile] | 20
